Earlier results in patent US7056534B2, “Coated potassium chloride granules and tablets” (Upsher-Smith Laboratories, Inc., priority 2001, dated 2006).
Like-named read-outs stand apart in the source and are kept apart here.

For [Cl-].[K+] [Potassium chloride], the Solubility (acetone) is given as “insoluble”, the “Volume of solvent in which 1 gram dissolves” value (“Volume of solvent” for short) (boiling water) is given as 1.8 mL and the Solubility (ether) is given as “insoluble”. For the same molecule, the “Volume of solvent” value (ethyl alcohol) was “about 250 ml”, the “Volume of solvent” value (glycerol) was 14 mL and the “Volume of solvent” value (water) was 2.8 mL.
